# According to patent US11427604B2 (Mindset Pharma Inc., priority 2020, dated 2022):
# “And” between values parts separate entries of the source, which are not always exact repeats. Identical values can stand only once. Like-named read-outs stand apart in the source and are kept apart here.
# Assays:
# [1] = In vivo pharmacokinetics in male C57BL/6 mice; design: species or system mouse; settings: for AUC(0-t): read-out: AUC0-tlast; for half-life: read-out: Apparent t1/2 (converted); for MRT inf: read-out: MRT0-inf
# Description: Male C57BL/6 mice (25-30 g) and male Sprague-Dawley rats (250-325 g) from Charles River Labs were acclimatized for a minimum of 5 days prior to dosing. Body weights were recorded on the day of dosing.
# Animals dosed p.o. were deprived of food overnight and fed ˜2 h following dosing.
# Formulations were administered intravenously (i.v.) via the tail vein or orally (p.o.) by gavage with disposable feeding needles.
# Serial blood samples were collected via tail snip. Terminal blood samples were collected under isoflurane anesthesia by cardiac puncture.
# All blood samples were transferred into K2EDTA tubes on wet ice and centrifuged within 5 min (3200×g for 5 min at 4° C.) to obtain plasma. Plasma was stored at −80° C. until analysis.
# Mouse or rat plasma, as applicable.
# AB Sciex QTRAP 4000 or 6500 MS/MS system equipped with an LC system with a binary pump, a solvent degasser, a thermostated column compartment and a multiplate autosampler. i. Analysis software: Phoenix® WinNonlin® 8.2 (Pharsight, Certara, Mountainview, Calif.) ii. Analysis methods: non-compartmental analysis, linear up/log down trapezoidal rule iii. PK parameters: C0, t1/2, AUC0-tlast, AUC0-∞, CL, VSS, MRT, tmax(po), Cmax(po), F, as appropriate
# [2] = Rat liver microsomes stability with NADPH
# C57BL/6J mice = test: Mouse head twitch response (HTR); format: in vivo; settings: for Head Twitch 10 mins, AVG / Head Twitch 20 mins, AVG / Head Twitch 30 mins, AVG / Head Twitch 40 mins, AVG / Head Twitch 50 mins, AVG / Head Twitch 60 mins, AVG / Head Twitch Total, AVG: group mean; for Head Twitch Total, AVG: over 1 h
# Description: Data is expressed as mean±SEM. The induction of head twitches elicited by 5-HT2A receptor agonists is believed to represent a behavioural proxy of their psychedelic effects.
# The effect of different doses of exemplary compounds of Formula I were evaluated on head-twitch response (HTR) as a behavior-based model of psychedelic activity.
# Male, C57BL/6J mice (body weight range 20-30 g) were dosed with the appropriate dose of test article, and following a 1-minute pre-treatment time, placed in individual observation chambers. Animals were visually assessed for the incidence head twitches continuously over a 1 hr period. Head twitches were defined as a rapid jerk of the head which was not elicited by an external tactile stimulus (Corne and Pickering, Psychopharmacologia, 1967, 11(1): 65-78). Each head twitch was individually counted by a trained observer, and the data expressed as the mean+SEM of 6-10 mice per group. Mice were used in a single experiment only.
# [3] = mouse, plasma, iv, i.v. 1 mg/kg
# [4] = mouse, plasma, po, p.o. 10 mg/kg
structure (smiles),measurement,setting,value
"[2H]C([2H])([2H])N(C([2H])([2H])[2H])C([2H])([2H])C([2H])([2H])c1c[nH]c2cccc(O)c12 [Compound I-45, 3-(2-(bis(methyl-d3)amino)ethyl-1,1,2,2-d4)-1H-indol-4-ol]",AUC0-inf/Dose,[1]; i.v. 1 mg/kg,181 ± 30.8 kg·ng·h/mL/mg
same,AUC(0-inf),[1]; [3],181 ± 30.8 ng·h/mL
same,clearance,[1]; [3],94 mL/min/kg
same,AUC(0-t),[1]; [3],178 ± 32.2 ng·h/mL
same,half-life,[1]; [3],5.32 ± 2.99 h
same,MRT inf,[1]; [3],1.49 ± 0.536 h
same,Vd,"[1]; mouse, plasma, iv, i.v. 1 mg/kg, read-out: Vss",8.34 ± 3.15 L/kg
same,AUC(0-inf),[1]; [4],795 ± 121 ng·h/mL
same,Cmax,[1]; [4],704 ± 128 ng/mL
same,bioavailability,[1]; [4],44 ± 6.7%
same,AUC(0-t),[1]; [4],792 ± 120 ng·h/mL
same,half-life,[1]; [4],4.52 ± 0.481 h
same,MRT inf,[1]; [4],2 ± 0.227 h
same,AUC0-inf/Dose,[1]; p.o. 10 mg/kg,79.5 ± 12.1 kg·ng·h/mL/mg
same,Cmax/Dose,[1]; p.o. 10 mg/kg,70.4 ± 12.8 kg·ng/mL/mg
same,Remaining Percentage (%) after 60 min,"[2]; Rat, with NADPH, 2 μM",3.34%
same,half-life at 2 μM,"[2]; rat, microsomes",0.204 h
same,microsomal CLint at 2 μM,"[2]; rat, microsomes",113 µL/min/mg
same,"Head Twitch 10 mins, individual animal","C57BL/6J mice; 0.03 mg/kg SC, animals C1-C6",0 (2×) and 1 and 3 and 2 (2×)
same,"Head Twitch 20 mins, individual animal","C57BL/6J mice; 0.03 mg/kg SC, animals C1-C6",0 (5×) and 1
same,"Head Twitch 30 mins, individual animal","C57BL/6J mice; 0.03 mg/kg SC, animals C1-C6",0
same,"Head Twitch 40 mins, individual animal","C57BL/6J mice; 0.03 mg/kg SC, animals C1-C6",0
same,"Head Twitch 50 mins, individual animal","C57BL/6J mice; 0.03 mg/kg SC, animals C1-C6",0 (5×) and 1
same,"Head Twitch 60 mins, individual animal","C57BL/6J mice; 0.03 mg/kg SC, animals C1-C6",0
same,"Head Twitch Total, individual animal","C57BL/6J mice; 0.03 mg/kg SC, animals C1-C6, over 1 h",0 and 1 (2×) and 4 and 2 (2×)
same,"Head Twitch 10 mins, AVG",C57BL/6J mice; 0.03 mg/kg SC,1.3
same,"Head Twitch 20 mins, AVG",C57BL/6J mice; 0.03 mg/kg SC,0.2
same,"Head Twitch 30 mins, AVG",C57BL/6J mice; 0.03 mg/kg SC,0.0
same,"Head Twitch 40 mins, AVG",C57BL/6J mice; 0.03 mg/kg SC,0.0
same,"Head Twitch 50 mins, AVG",C57BL/6J mice; 0.03 mg/kg SC,0.2
same,"Head Twitch 60 mins, AVG",C57BL/6J mice; 0.03 mg/kg SC,0.0
same,"Head Twitch Total, AVG",C57BL/6J mice; 0.03 mg/kg SC,1.7
same,"Head Twitch 10 mins, individual animal","C57BL/6J mice; 0.1 mg/kg SC, animals P1-P10",3 and 6 and 0 (3×) and 1 (3×) and 2 (2×)
same,"Head Twitch 20 mins, individual animal","C57BL/6J mice; 0.1 mg/kg SC, animals P1-P10",1 (4×) and 0 (4×) and 2 (2×)
same,"Head Twitch 30 mins, individual animal","C57BL/6J mice; 0.1 mg/kg SC, animals P1-P10",0 (6×) and 1 (4×)
same,"Head Twitch 40 mins, individual animal","C57BL/6J mice; 0.1 mg/kg SC, animals P1-P10",1 (2×) and 0 (8×)
same,"Head Twitch 50 mins, individual animal","C57BL/6J mice; 0.1 mg/kg SC, animals P1-P10",0 (7×) and 2 and 1 (2×)
same,"Head Twitch 60 mins, individual animal","C57BL/6J mice; 0.1 mg/kg SC, animals P1-P10",0
same,"Head Twitch Total, individual animal","C57BL/6J mice; 0.1 mg/kg SC, animals P1-P10, over 1 h",5 and 9 and 3 (3×) and 2 (3×) and 1 and 4
same,"Head Twitch 10 mins, AVG",C57BL/6J mice; 0.1 mg/kg SC,1.6
same,"Head Twitch 20 mins, AVG",C57BL/6J mice; 0.1 mg/kg SC,0.8
same,"Head Twitch 30 mins, AVG",C57BL/6J mice; 0.1 mg/kg SC,0.4
same,"Head Twitch 40 mins, AVG",C57BL/6J mice; 0.1 mg/kg SC,0.2
same,"Head Twitch 50 mins, AVG",C57BL/6J mice; 0.1 mg/kg SC,0.4
same,"Head Twitch 60 mins, AVG",C57BL/6J mice; 0.1 mg/kg SC,0.0
same,"Head Twitch Total, AVG",C57BL/6J mice; 0.1 mg/kg SC,3.4
same,"Head Twitch 10 mins, individual animal","C57BL/6J mice; 0.3 mg/kg SC, animals Q1-Q10",3 and 1 (4×) and 0 (2×) and 2 (3×)
same,"Head Twitch 20 mins, individual animal","C57BL/6J mice; 0.3 mg/kg SC, animals Q1-Q10",0 (4×) and 1 (6×)
same,"Head Twitch 30 mins, individual animal","C57BL/6J mice; 0.3 mg/kg SC, animals Q1-Q10",1 (3×) and 0 (6×) and 3
same,"Head Twitch 40 mins, individual animal","C57BL/6J mice; 0.3 mg/kg SC, animals Q1-Q10",0 (8×) and 1 and 2
same,"Head Twitch 50 mins, individual animal","C57BL/6J mice; 0.3 mg/kg SC, animals Q1-Q10",0 (8×) and 1 (2×)
same,"Head Twitch 60 mins, individual animal","C57BL/6J mice; 0.3 mg/kg SC, animals Q1-Q10",0
same,"Head Twitch Total, individual animal","C57BL/6J mice; 0.3 mg/kg SC, animals Q1-Q10, over 1 h",4 (4×) and 2 (2×) and 1 and 3 and 6 and 0
same,"Head Twitch 10 mins, AVG",C57BL/6J mice; 0.3 mg/kg SC,1.3
same,"Head Twitch 20 mins, AVG",C57BL/6J mice; 0.3 mg/kg SC,0.6
same,"Head Twitch 30 mins, AVG",C57BL/6J mice; 0.3 mg/kg SC,0.6
same,"Head Twitch 40 mins, AVG",C57BL/6J mice; 0.3 mg/kg SC,0.3
same,"Head Twitch 50 mins, AVG",C57BL/6J mice; 0.3 mg/kg SC,0.2
same,"Head Twitch 60 mins, AVG",C57BL/6J mice; 0.3 mg/kg SC,0.0
same,"Head Twitch Total, AVG",C57BL/6J mice; 0.3 mg/kg SC,3.0
same,"Head Twitch 10 mins, individual animal","C57BL/6J mice; 1 mg/kg SC, animals R1-R6",0 and 4 and 1 and 3 (3×)
same,"Head Twitch 20 mins, individual animal","C57BL/6J mice; 1 mg/kg SC, animals R1-R6",0 (2×) and 2 and 1 and 7 and 8
same,"Head Twitch 30 mins, individual animal","C57BL/6J mice; 1 mg/kg SC, animals R1-R6",1 (2×) and 0 (3×) and 3
same,"Head Twitch 40 mins, individual animal","C57BL/6J mice; 1 mg/kg SC, animals R1-R6",0 (4×) and 2 (2×)
same,"Head Twitch 50 mins, individual animal","C57BL/6J mice; 1 mg/kg SC, animals R1-R6",0
same,"Head Twitch 60 mins, individual animal","C57BL/6J mice; 1 mg/kg SC, animals R1-R6",0
same,"Head Twitch Total, individual animal","C57BL/6J mice; 1 mg/kg SC, animals R1-R6, over 1 h",1 and 6 and 2 and 3 and 15 and 14
same,"Head Twitch 10 mins, AVG",C57BL/6J mice; 1 mg/kg SC,2.3
same,"Head Twitch 20 mins, AVG",C57BL/6J mice; 1 mg/kg SC,3.0
same,"Head Twitch 30 mins, AVG",C57BL/6J mice; 1 mg/kg SC,0.8
same,"Head Twitch 40 mins, AVG",C57BL/6J mice; 1 mg/kg SC,0.7
same,"Head Twitch 50 mins, AVG",C57BL/6J mice; 1 mg/kg SC,0.0
same,"Head Twitch 60 mins, AVG",C57BL/6J mice; 1 mg/kg SC,0.0
same,"Head Twitch Total, AVG",C57BL/6J mice; 1 mg/kg SC,6.8
same,"Head Twitch 10 mins, individual animal","C57BL/6J mice; 3 mg/kg SC, animals S1-S6",1 (2×) and 3 and 2 and 6 and 0
same,"Head Twitch 20 mins, individual animal","C57BL/6J mice; 3 mg/kg SC, animals S1-S6",2 (2×) and 1 and 0 and 3 and 5
same,"Head Twitch 30 mins, individual animal","C57BL/6J mice; 3 mg/kg SC, animals S1-S6",2 (2×) and 1 (3×) and 0
same,"Head Twitch 40 mins, individual animal","C57BL/6J mice; 3 mg/kg SC, animals S1-S6",2 and 0 (4×) and 3
same,"Head Twitch 50 mins, individual animal","C57BL/6J mice; 3 mg/kg SC, animals S1-S6",1 (2×) and 0 (4×)
same,"Head Twitch 60 mins, individual animal","C57BL/6J mice; 3 mg/kg SC, animals S1-S6",0 (5×) and 1
same,"Head Twitch Total, individual animal","C57BL/6J mice; 3 mg/kg SC, animals S1-S6, over 1 h",8 and 5 and 3 and 4 and 14 and 7
same,"Head Twitch 10 mins, AVG",C57BL/6J mice; 3 mg/kg SC,2.2
same,"Head Twitch 20 mins, AVG",C57BL/6J mice; 3 mg/kg SC,2.2
same,"Head Twitch 30 mins, AVG",C57BL/6J mice; 3 mg/kg SC,1.2
same,"Head Twitch 40 mins, AVG",C57BL/6J mice; 3 mg/kg SC,0.8
same,"Head Twitch 50 mins, AVG",C57BL/6J mice; 3 mg/kg SC,0.3
same,"Head Twitch 60 mins, AVG",C57BL/6J mice; 3 mg/kg SC,0.2
same,"Head Twitch Total, AVG",C57BL/6J mice; 3 mg/kg SC,6.8
same,"Head Twitch 10 mins, individual animal","C57BL/6J mice; 10 mg/kg SC, animals T1-T6",3 and 1 (2×) and 0 (3×)
same,"Head Twitch 20 mins, individual animal","C57BL/6J mice; 10 mg/kg SC, animals T1-T6",1 (2×) and 0 (4×)
same,"Head Twitch 30 mins, individual animal","C57BL/6J mice; 10 mg/kg SC, animals T1-T6",0
same,"Head Twitch 40 mins, individual animal","C57BL/6J mice; 10 mg/kg SC, animals T1-T6",0 (4×) and 1 (2×)
same,"Head Twitch 50 mins, individual animal","C57BL/6J mice; 10 mg/kg SC, animals T1-T6",0
same,"Head Twitch 60 mins, individual animal","C57BL/6J mice; 10 mg/kg SC, animals T1-T6",0 (5×) and 3
same,"Head Twitch Total, individual animal","C57BL/6J mice; 10 mg/kg SC, animals T1-T6, over 1 h",4 and 2 and 5 and 0 (2×) and 1
same,"Head Twitch 10 mins, AVG",C57BL/6J mice; 10 mg/kg SC,0.8
same,"Head Twitch 20 mins, AVG",C57BL/6J mice; 10 mg/kg SC,0.3
same,"Head Twitch 30 mins, AVG",C57BL/6J mice; 10 mg/kg SC,0.0
same,"Head Twitch 40 mins, AVG",C57BL/6J mice; 10 mg/kg SC,0.3
same,"Head Twitch 50 mins, AVG",C57BL/6J mice; 10 mg/kg SC,0.0
same,"Head Twitch 60 mins, AVG",C57BL/6J mice; 10 mg/kg SC,0.5
same,"Head Twitch Total, AVG",C57BL/6J mice; 10 mg/kg SC,2.0
same,head twitch frequency compared to vehicle control,"C57BL/6J mice; 0.3-10 mg/kg SC, measured over 1 h",dose dependent increase
